Test results reported in ChEMBL document CHEMBL4715697, “Synthesis and biological activity of benzamide DNA minor groove binders” (2016).

Columns and labels:
Format in all cases: functional
SR = test: Growth inhibition of human SR cells assessed as cell growth at 0.01 uM incubated for 48 hrs by sulforhodamine B assay relative to control; conditions: read-out: Activity
SF-295 [1] = test: Growth inhibition of human SF-295 cells assessed as cell growth at 0.01 uM incubated for 48 hrs by sulforhodamine B assay relative to control; conditions: read-out: Activity
Malme-3M [2] = test: Growth inhibition of human Malme-3M cells assessed as cell growth at 0.01 uM incubated for 48 hrs by sulforhodamine B assay relative to control; conditions: read-out: Activity
UACC-62 = test: Growth inhibition of human UACC-62 cells assessed as cell growth at 0.01 uM incubated for 48 hrs by sulforhodamine B assay relative to control; conditions: read-out: Activity
NCI/ADR-RES = test: Growth inhibition of human NCI/ADR-RES cells assessed as cell growth at 0.01 uM incubated for 48 hrs by sulforhodamine B assay relative to control; conditions: read-out: Activity
CAKI-1 = test: Growth inhibition of human CAKI-1 cells assessed as cell growth at 0.01 uM incubated for 48 hrs by sulforhodamine B assay relative to control; conditions: read-out: Activity
CCRF-CEM = test: Growth inhibition of human CCRF-CEM cells assessed as cell growth at 0.1 uM incubated for 48 hrs by sulforhodamine B assay relative to control; conditions: read-out: Activity
A549 [3] = test: Growth inhibition of human A549/ATCC cells assessed as cell growth at 0.1 uM incubated for 48 hrs by sulforhodamine B assay relative to control; conditions: read-out: Activity
SF-295 [4] = test: Growth inhibition of human SF-295 cells assessed as cell growth at 0.1 uM incubated for 48 hrs by sulforhodamine B assay relative to control; conditions: read-out: Activity
M14 [5] = test: Growth inhibition of human M14 cells assessed as cell growth at 0.1 uM incubated for 48 hrs by sulforhodamine B assay relative to control; conditions: read-out: Activity
OVCAR-5 [6] = test: Growth inhibition of human OVCAR-5 cells assessed as cell growth at 0.1 uM incubated for 48 hrs by sulforhodamine B assay relative to control; conditions: read-out: Activity
OVCAR-8 = test: Growth inhibition of human OVCAR-8 cells assessed as cell growth at 0.1 uM incubated for 48 hrs by sulforhodamine B assay relative to control; conditions: read-out: Activity
PC-3 [7] = test: Growth inhibition of human PC-3 cells assessed as cell growth at 0.1 uM incubated for 48 hrs by sulforhodamine B assay relative to control; conditions: read-out: Activity
RPMI-8226 = test: Growth inhibition of human RPMI-8226 cells assessed as cell growth at 1 uM incubated for 48 hrs by sulforhodamine B assay relative to control; conditions: read-out: Activity
EKVX = test: Growth inhibition of human EKVX cells assessed as cell growth at 1 uM incubated for 48 hrs by sulforhodamine B assay relative to control; conditions: read-out: Activity
NCI-H322M = test: Growth inhibition of human NCI-H322M cells assessed as cell growth at 1 uM incubated for 48 hrs by sulforhodamine B assay relative to control; conditions: read-out: Activity
Malme-3M [8] = test: Growth inhibition of human Malme-3M cells assessed as cell growth at 1 uM incubated for 48 hrs by sulforhodamine B assay relative to control; conditions: read-out: Activity
OVCAR-4 = test: Growth inhibition of human OVCAR-4 cells assessed as cell growth at 1 uM incubated for 48 hrs by sulforhodamine B assay relative to control; conditions: read-out: Activity
SN12C = test: Growth inhibition of human SN12C cells assessed as cell growth at 1 uM incubated for 48 hrs by sulforhodamine B assay relative to control; conditions: read-out: Activity
PC-3 [9] = test: Growth inhibition of human PC-3 cells assessed as cell growth at 1 uM incubated for 48 hrs by sulforhodamine B assay relative to control; conditions: read-out: Activity
BT-549 = test: Growth inhibition of human BT-549 cells assessed as cell growth at 1 uM incubated for 48 hrs by sulforhodamine B assay relative to control; conditions: read-out: Activity
MDA-MB-468 [10] = test: Growth inhibition of human MDA-MB-468 cells assessed as cell growth at 1 uM incubated for 48 hrs by sulforhodamine B assay relative to control; conditions: read-out: Activity
A549 [11] = test: Growth inhibition of human A549/ATCC cells assessed as cell growth at 100 uM incubated for 48 hrs by sulforhodamine B assay relative to control; conditions: read-out: Activity
NCI-H460 = test: Growth inhibition of human NCI-H460 cells assessed as cell growth at 100 uM incubated for 48 hrs by sulforhodamine B assay relative to control; conditions: read-out: Activity
HCT-15 = test: Growth inhibition of human HCT-15 cells assessed as cell growth at 100 uM incubated for 48 hrs by sulforhodamine B assay relative to control; conditions: read-out: Activity
KM12 = test: Growth inhibition of human KM12 cells assessed as cell growth at 100 uM incubated for 48 hrs by sulforhodamine B assay relative to control; conditions: read-out: Activity
SK-MEL-28 = test: Growth inhibition of human SK-MEL-28 cells assessed as cell growth at 100 uM incubated for 48 hrs by sulforhodamine B assay relative to control; conditions: read-out: Activity
OVCAR-5 [12] = test: Growth inhibition of human OVCAR-5 cells assessed as cell growth at 100 uM incubated for 48 hrs by sulforhodamine B assay relative to control; conditions: read-out: Activity
PC-3 [13] = test: Growth inhibition of human PC-3 cells assessed as cell growth at 100 uM incubated for 48 hrs by sulforhodamine B assay relative to control; conditions: read-out: Activity
MDA-MB-468 [14] = test: Growth inhibition of human MDA-MB-468 cells assessed as cell growth at 100 uM incubated for 48 hrs by sulforhodamine B assay relative to control; conditions: read-out: Activity
NCI-H23 = test: Growth inhibition of human NCI-H23 cells incubated for 48 hrs by sulforhodamine B assay
SF-268 = test: Growth inhibition of human SF-268 cells incubated for 48 hrs by sulforhodamine B assay
M14 [15] = test: Growth inhibition of human M14 cells incubated for 48 hrs by sulforhodamine B assay
SK-MEL-5 = test: Growth inhibition of human SK-MEL-5 cells incubated for 48 hrs by sulforhodamine B assay
IGROV-1 = test: Growth inhibition of human IGROV-1 cells incubated for 48 hrs by sulforhodamine B assay
SK-OV-3 = test: Growth inhibition of human SK-OV-3 cells incubated for 48 hrs by sulforhodamine B assay
[16] = read-out: LC50 (the source's name)
[17] = read-out: pLC50 (the source's name) (converted)

CC(=O)Nc1cc(CO[Si](C)(C)C(C)(C)C)cc(NC(=O)c2ccc(C(=O)Nc3cccc(NC(=O)CCCN(C)C)c3)cc2)c1
growth at 0.01 µM (SR): 106% | growth at 0.01 µM (SF-295 [1]): 98% | growth at 0.01 µM (Malme-3M [2]): 99% | growth at 0.01 µM (UACC-62): 96% | growth at 0.01 µM (NCI/ADR-RES): 103% | growth at 0.01 µM (CAKI-1): 92% | growth at 0.1 µM (CCRF-CEM): 98% | growth at 0.1 µM (A549 [3]): 99% | growth at 0.1 µM (SF-295 [4]): 123% | growth at 0.1 µM (M14 [5]): 95% | growth at 0.1 µM (OVCAR-5 [6]): 93% | growth at 0.1 µM (OVCAR-8): 97% | growth at 0.1 µM (PC-3 [7]): 97% | growth at 1 µM (RPMI-8226): 110% | growth at 1 µM (EKVX): 89% | growth at 1 µM (NCI-H322M): 97% | growth at 1 µM (Malme-3M [8]): 94% | growth at 1 µM (OVCAR-4): 100% | growth at 1 µM (SN12C): 100% | growth at 1 µM (PC-3 [9]): 105% | growth at 1 µM (BT-549): 99% | growth at 1 µM (MDA-MB-468 [10]): 90% | growth at 100 µM (A549 [11]): 98% | growth at 100 µM (NCI-H460): 89% | growth at 100 µM (HCT-15): 82% | growth at 100 µM (KM12): 88% | growth at 100 µM (SK-MEL-28): 74% | growth at 100 µM (OVCAR-5 [12]): 79% | growth at 100 µM (PC-3 [13]): 93% | growth at 100 µM (MDA-MB-468 [14]): 103% | GI50 (NCI-H23; read-out: GI50): > 75 µM | CC50 (NCI-H23; [16]): > 75 µM | TGI (NCI-H23; read-out: TGI): > 75 µM | GI50 (NCI-H23; read-out: pGI50 (converted)): > 75.9 µM | CC50 (NCI-H23; [17]): > 75.9 µM | TGI (NCI-H23; read-out: pTGI): > 75.9 µM | GI50 (SF-268; read-out: GI50): > 75 µM | LC50 (SF-268; read-out: LC50): > 75 µM | TGI (SF-268; read-out: TGI): > 75 µM | GI50 (SF-268; read-out: pGI50 (converted)): > 75.9 µM | LC50 (SF-268; read-out: pLC50 (converted)): > 75.9 µM | TGI (SF-268; read-out: pTGI): > 75.9 µM | GI50 (M14 [15]; read-out: GI50): > 75 µM | CC50 (M14 [15]; [16]): > 75 µM | TGI (M14 [15]; read-out: TGI): > 75 µM | GI50 (M14 [15]; read-out: pGI50 (converted)): > 75.9 µM | CC50 (M14 [15]; [17]): > 75.9 µM | TGI (M14 [15]; read-out: pTGI): > 75.9 µM | GI50 (SK-MEL-5; read-out: GI50): > 75 µM | LC50 (SK-MEL-5; read-out: LC50): > 75 µM | TGI (SK-MEL-5; read-out: TGI): > 75 µM | GI50 (SK-MEL-5; read-out: pGI50 (converted)): > 75.9 µM | LC50 (SK-MEL-5; read-out: pLC50 (converted)): > 75.9 µM | TGI (SK-MEL-5; read-out: pTGI): > 75.9 µM | GI50 (IGROV-1; read-out: GI50): > 75 µM | CC50 (IGROV-1; [16]): > 75 µM | TGI (IGROV-1; read-out: TGI): > 75 µM | GI50 (IGROV-1; read-out: pGI50 (converted)): > 75.9 µM | CC50 (IGROV-1; [17]): > 75.9 µM | TGI (IGROV-1; read-out: pTGI): > 75.9 µM | GI50 (SK-OV-3; read-out: GI50): > 75 µM | LC50 (concentration killing 50% of cells) (SK-OV-3; read-out: LC50): > 75 µM | TGI (SK-OV-3; read-out: TGI): > 75 µM | GI50 (SK-OV-3; read-out: pGI50 (converted)): > 75.9 µM | LC50 (concentration killing 50% of cells) (SK-OV-3; read-out: pLC50 (converted)): > 75.9 µM | TGI (SK-OV-3; read-out: pTGI): > 75.9 µM
